assay: gradient 5% acetonitrile 3 min, to 50% in 2 min, to 85% in 15 min, held 3 min, 100 µL/min; conditions: column: Zorbax Extend-C18 2.1 x 50 mm; eluents: water / acetonitrile, 0.1% formic acid
In short: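 Pure standards were run in mixtures of ~100 molecules by HPLC coupled to a quadrupole time-of-flight mass spectrometer. The column was a Zorbax Extend-C18 (2.1 × 50 mm, 1.8 μm) at 100 μL/min, with water and acetonitrile each containing 0.1% formic acid, in positive and negative ionization mode. Dead and dwell volumes were 40 μL and 900 μL. Retention time was taken from computationally picked adduct peaks, each manually inspected, with data collected over 3 months.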

SMILES	RP-LC retention time [s]
CCCNc1cc(N2CCC(CCC(=O)NCc3ccc(OC)cc3)CC2)ncn1	657
CNC(=O)C1CN(C(=O)c2ccc(OC)cc2)CC12CCCC2 (centres undefined)	570
Cc1cc(C)n(Cc2nc(-c3ccc(NC(=O)c4cccs4)cc3)oc2C)n1	896
Fc1cc(CN2CCC(Cc3nnc(C4CCOCC4)o3)C2)ccc1Cl (centres undefined)	603
COC(=O)c1c(NC(=O)c2cnn(-c3ccccc3)c2C)sc2c1CCN(C(C)=O)C2	812
CCN1CCn2cc(S(=O)(=O)Nc3ccccc3OC)cc2C1=O	690
Cc1ccc(-n2c(=O)c3c(cc(C)n3C)n(CC(=O)Nc3cccc(Cl)c3)c2=O)cc1	937
CCC1Oc2ccc(S(=O)(=O)N3CCC(C(=O)Nc4ccc(C)c(Cl)c4)CC3)cc2NC1=O (centres undefined)	1020
CCOc1ccc(-n2nc(CO)c(C(=O)NC)n2)cc1	763
CCCNC(=O)C1CCCN(c2ccc(SCC(=O)Nc3ccc(C)cc3Cl)nn2)C1 (centres undefined)	748
O=C([C@@H]1C[C@H](F)CN1C(=O)NCc1ccco1)N1CCCCC1	631
COCCOCC1CCN(C(=O)COc2cccc(OC)c2)CC1	709
CCc1ccc2[nH]c3c(c(=O)c2c1)CN(CC(=O)NC1CCCCC1)CC3	630
Cc1ccc(CN2CCC(CNC(=O)c3noc(C)c3Cn3nc(C)cc3C)C2)cc1 (centres undefined)	659
COc1ccc(Nc2c(-c3ccc(SC)cc3)nc3cnccn23)cc1OC	818
O=C(c1cc2ccccc2o1)N1CCCC(c2nnc(C(F)(F)F)o2)C1 (centres undefined)	872
Cc1ccnc(NC(=O)C2CCN(S(=O)(=O)c3cc(C(=O)N4CCCCCC4)cs3)CC2)c1	638
COCc1noc([C@@H]2CN(Cc3cn(C)c4ccccc34)C[C@H]2CO)n1	616
CC(C)C(=O)N1CCc2ccc(NC(=O)c3ccc(Cl)c(Cl)c3)cc2C1	901
Cc1ccc(NC(=O)C(C)C2CCN(C(=O)Nc3ccc(F)cc3)CC2)cc1Cl (centres undefined)	974

SMILES	RP-LC retention time [s]
Cc1ccc(Cl)cc1NC(=O)c1[nH]c(C)c(S(=O)(=O)N2CCCC2)c1C	949
Cc1ccc(S(=O)(=O)CCc2noc(C(=O)N3CCC4(CC3)OCCO4)n2)cc1	816
Cc1sc(-c2cc(C(F)(F)F)[nH]n2)cc1S(=O)(=O)NC1CCCCC1	1030
COc1cccc(S(=O)(=O)N2CC(n3ccnc3)C2)c1	601
COc1ccc(NC(=O)c2cn(-c3cc(N4CCCC4)ncn3)cn2)c(OC)c1	891
COc1cccc(-c2noc(Cn3ccn(-c4c(C)cccc4C)c(=O)c3=O)n2)c1	872
COc1ccc(C)cc1NC(=O)N1CCCC(C)(C(=O)NCc2ccc(C)cc2)C1 (centres undefined)	968
CCn1ccc2cc(S(=O)(=O)N3CCCC(C(=O)NCCCOC)C3)ccc21 (centres undefined)	804
Cc1ccc(CNC(=O)N2CCCC(OCc3nc(C)no3)C2)cc1 (centres undefined)	770
COc1ccc(NC(=O)C2CCN(S(=O)(=O)c3cc(-c4noc(C)n4)cs3)CC2)cc1Cl	946
O=C(CN1C(=O)CCC1=O)N1CCC(c2noc(-c3cnccn3)n2)C1 (centres undefined)	591
Cc1nnc2cc(N3CCN(C(=O)Nc4ccc(F)cc4F)CC3)cnn12	597
COc1cc(OC)c(NC(=O)N2CCCC2c2nncn2C2CCCC2)cc1Cl (centres undefined)	668
COC(=O)c1ccc(Cl)cc1NC(=O)N(C)Cc1nc2cc(C(=O)N(C)C)ccc2n1C	705
CC(C)C(=O)N1CCc2cc(C(=O)N(C)C)ccc21	678
CCn1cc2c3c(cccc31)CN(C(=O)Nc1cccc(C)c1)CC2	1050
Cc1cc(-c2nnc(NC(=O)Cn3cnc4c3c(=O)n(C)c(=O)n4C)o2)n(C)n1	580
Cc1ccc(NS(=O)(=O)c2cc3c(s2)CCN(C(=O)C2CCC2)C3)c(C)c1	943
COc1ccc(F)cc1S(=O)(=O)N1CCc2nn(C)c(=O)n2CC1	673
CCN1CCn2cc(C(=O)NCc3cc(C)ccc3C)nc2C1	592

SMILES	RP-LC retention time [s]
N#Cc1ccc(-n2cnc(C(=O)Nc3cccc(C(F)(F)F)c3)c2)cc1	889
Cc1cc(C(=O)Nc2nc3c(F)cccc3s2)no1	780
CCOc1ccc(C(=O)N2CCc3nc[nH]c3C2)cc1	565
O=C1CC(c2nc(-c3ccc(C(F)(F)F)cc3)no2)CN1c1ccc2c(c1)OCCO2 (centres undefined)	1030
CCCN(C)C(=O)c1c(C)oc2c1CN(C(=O)COC)CC2	613
Cc1ccc(NC(=O)N2CCN(Cc3nc4cc(C)ccc4o3)CC2)cc1	725
Cc1cc(=O)n(CC(=O)Nc2ccc(Br)cc2)c(N)n1	609
CC(C)c1ccc(S(=O)(=O)N2CCCC2c2nc(-c3ccc(F)cc3)no2)cc1 (centres undefined)	1260
Cc1ccc(OCc2nc3c4ccccc4ncn3n2)cc1	934
CCc1noc(NC(C)=O)c1-c1ccc(C)c(S(=O)(=O)Nc2ccc(F)cc2Cl)c1	872
O=C(COc1ccc(F)cc1)Nc1cnc(N2CCCCCC2)nc1	957
COc1ccc(-c2nnc(COc3ccc(NC(=O)c4ccc(C)s4)cc3)o2)cc1	921
CCN1CCCc2cc(C(=O)N3CCC4(CC3)OCCO4)sc21	603
CCc1noc([C@@H]2CC(F)(F)CN2C(=O)c2cocn2)n1	733
Cc1cnc(C2CC2)n1C1CCN(S(=O)(=O)c2ccc(C#N)cc2)C1 (centres undefined)	647
Cc1ccc(Nc2c(-c3cccc(Cl)c3)nc3cccc(C)n23)cc1	836
O=C(c1ccc2c(c1)OCO2)N1C[C@H]2C[C@H](C1)[C@H]1CCCC(=O)N1C2	637
CNC(=O)c1noc([C@@H]2CC(F)(F)CN2C(=O)C2CC=CC2)n1	698
O=C(Nc1ccccc1C(F)(F)F)c1ccc(N2CCCC2)nn1	868

Second part, the compound after the results:

RP-LC retention time [s]	SMILES
576	COc1cccc2cc(C(=O)N3CCN(c4ccccn4)CC3)oc12
638	CC1(C(=O)NCc2ccccc2)Oc2cccnc2NC1=O (centres undefined)
891	COc1ccc2nc(C(=O)NCc3ccccc3Br)cn2n1
890	O=C(CN1C(=O)C2CCCCN2C(=O)c2ccccc21)Nc1ccc(C(F)(F)F)cc1 (centres undefined)
794	O=C(NCc1ccccc1F)c1ccc2c(c1)Sc1ncccc1C(=O)N2C1CC1
793	O=C(Cn1ccc2sccc2c1=O)Nc1cccc(Br)c1
914	Cc1cc(C)n(CC(=O)NC(C)c2ccccc2)c1-c1nc(C2CC2)no1 (centres undefined)
1080	CCOC(=O)c1ccccc1NC(=O)CSc1nnc2c3cc(-c4ccc(C)cc4)nn3ccn12
846	CCc1ccc(NC(=O)C2CCN(C(=O)c3ncn4c3COC(c3ccccc3)C4)CC2)cc1 (centres undefined)
872	O=C(NCc1ccc2c(c1)OCO2)C1CCCN(c2nccn3nc(-c4ccc(F)cc4)cc23)C1 (centres undefined)
1040	CCCCN1C(=O)C(C)(C(=O)NCc2ccc(C)cc2)Oc2cccnc21 (centres undefined)
792	CCCCN1CC(c2nc3ccccc3n2CC(=O)N(c2ccccc2)C(C)C)CC1=O (centres undefined)
686	CCOC(=O)c1ccc(NC(=O)Cn2cnc3nc(-c4cccnc4)ncc3c2=O)cc1
1240	CCCOc1nc2ccccc2nc1N1CCCC(C(=O)NCc2ccc(C)cc2)C1 (centres undefined)
1010	Cn1nc(-c2nnc(-c3ccccc3)o2)c2c1CCN(S(=O)(=O)c1ccc(Cl)s1)C2
699	CCOC(=O)c1[nH]c2ccccc2c1NC(=O)c1ccc(N2C(=O)CCC2=O)cc1
1040	COc1ccccc1NC(=O)N1CCOc2ccc(C)cc21
919	O=C([C@@H]1C[C@H](F)CN1S(=O)(=O)Cc1ccccc1F)N1CCc2ccccc2C1
759	CCn1cc(C2=CCN(C(=O)Nc3ccc(OC)c(OC)c3)CC2)c2cccnc21
651	CCOc1cc(-c2ccccc2)nc2ccc(NC(=O)NCC(=O)OC)cc12
892	COc1ccccc1Cc1noc(C2CN(C(=O)c3ccc(Cl)s3)C2)n1
899	COCc1cnc2c(c1SCc1ccccc1F)c(=O)n(C)c(=O)n2C
761	COc1ccc(NC(=O)NC2CCN(c3ccccc3)C2=O)c(OC)c1 (centres undefined)
776	O=S(=O)(NC1CCN(Cc2ccccc2)CC1)c1cc(-c2cc(C(F)(F)F)on2)cs1
1260	Cn1cc(-c2nc(C(=O)Nc3cc(F)ccc3Cl)cs2)c2cccnc21
924	Cc1ccc(F)c(NS(=O)(=O)c2ccc3c(c2)C(=O)N(C)c2ncccc2O3)c1
894	CCc1ccc(C(=O)N2CCCN(C3=NS(=O)(=O)C(c4ccccc4)=C3C)CC2)cc1
755	O=C(CCNc1c(-c2cccc(F)c2)nc2cnccn12)NCc1ccc(F)cc1
688	O=C(NCc1cccc(F)c1)N1C[C@@H]2C[C@H](NS(=O)(=O)c3cccnc3)[C@H]1C2
745	O=C(Nc1ccccc1F)N1CCN(Cc2nc3ccc(Cl)cc3o2)CC1

From the METLIN SMRT retention time set (Domingo-Almenara et al. 2019)
